The source of these data is the OligoGym collection.

These antisense oligonucleotides have a phosphorothioate backbone; sugars and methylation of C are not fully specified.

Conditions in all cases: ASO
Data set [1] concerns the target SMAD2.
The target of data set [2] is GNAI2.
Data set [3] deals with ITGB3.
Note: test concentration or dose not given here.

In the case of CTCTTCACAACTGGCGGC, the remaining target (mRNA or protein) (fraction of control) in data set [1] was determined as 0.16.

Regarding CTGAGCCAGAAGAGCAGC, the remaining target (mRNA or protein) (fraction of control) in data set [1] came to 0.18.

Take CTGCTTGACGATGGTGCT: in data set [2], the remaining target (mRNA or protein) (fraction of control) stood at 0.6.

CTGTGACGCCCTCAAAGC showed a remaining target (mRNA or protein) (fraction of control) in data set [2] of 0.51.

As to CTTCACCAGACTTTTCAC, the remaining target (mRNA or protein) (fraction of control) in data set [1] came to 0.15.

In data set [1], CTTCCATCCCAGCAGTCT came in with a remaining target (mRNA or protein) (fraction of control) of 0.1.

In data set [2], CTTCCCTGACTCCCCAGC returned a remaining target (mRNA or protein) (fraction of control) of 0.3.

With CTTCCGTCCAATGCTATA, the remaining target (mRNA or protein) (fraction of control) in data set [3] worked out at 0.96.

In the case of CTTGAAGGTGAAGTGTGT, the remaining target (mRNA or protein) (fraction of control) in data set [2] stood at 0.74.

For the sequence CTTTAGAACGGATTTTCC, in data set [3], the remaining target (mRNA or protein) (fraction of control) is ≥ 1.

In the case of GAACATAAGCCAGAAGGG, the remaining target (mRNA or protein) (fraction of control) in data set [2] is 0.94.

In data set [3], GACTCCTGCAATCCTGGC yielded a remaining target (mRNA or protein) (fraction of control) of 0.53.

Turning to GAGACCTGGTTTGTTCAG, the remaining target (mRNA or protein) (fraction of control) in data set [1] worked out at 0.46.

On to GAGAGCCTGTGTCCATAC, for which the remaining target (mRNA or protein) (fraction of control) in data set [1] was found to be 0.29.

In turn, GAGGTGGCGTTTCTGGAA displayed a remaining target (mRNA or protein) (fraction of control) in data set [1] of 0.29.

In data set [1], GAGTGGTGATGGCTTTCT came in with a remaining target (mRNA or protein) (fraction of control) of 0.4.

With GATAGTAAACAGTCCATA, in data set [1], the remaining target (mRNA or protein) (fraction of control) turned out to be 0.5.

Sequence GCATCCTTGCCAGTGTCC returned a remaining target (mRNA or protein) (fraction of control) in data set [3] of 0.47.

Sequence GCATCTCGTCCGCCTCCC showed a remaining target (mRNA or protein) (fraction of control) in data set [3] of 0.44.

Turning to GCCAGCACAGTCACCCAG, in data set [3], the remaining target (mRNA or protein) (fraction of control) is ≥ 1.

Turning to GCCCATTGCTGGACATGC, in data set [3], the remaining target (mRNA or protein) (fraction of control) was ≥ 1.

For the sequence GCCCCGAAGCCAATCCGC, in data set [3], the remaining target (mRNA or protein) (fraction of control) was ≥ 1.

With GCCCCGCTGCCCCTCAGA, the remaining target (mRNA or protein) (fraction of control) in data set [2] was 0.65.

The sequence GCGAACCCCTCCCCTACG gave a remaining target (mRNA or protein) (fraction of control) in data set [2] of 0.71.

GCGCTTATTCAGGTCCTC: in data set [2], the remaining target (mRNA or protein) (fraction of control) was determined as 0.33.

Turning to GCGGAAGTTCTGTTAGGA, in data set [1], the remaining target (mRNA or protein) (fraction of control) came to 0.43.

The sequence GGAAAGAGGAGAAAAGCG came in with a remaining target (mRNA or protein) (fraction of control) in data set [2] of 0.65.

Consider GGAAAGAGTAGTAGGAGA, for which the remaining target (mRNA or protein) (fraction of control) in data set [1] came out at 0.48.

In turn, GGCAAAACTGGTGTCTCA displayed a remaining target (mRNA or protein) (fraction of control) in data set [1] of 0.26.

Sequence GGCAGGCTTCAAACAGGG yielded a remaining target (mRNA or protein) (fraction of control) in data set [2] of 0.52.

In data set [2], GGCCTGTGCGAACCCCTC had a remaining target (mRNA or protein) (fraction of control) of 0.96.

In turn, GGGAAGCAGATGGTCAGG returned a remaining target (mRNA or protein) (fraction of control) in data set [2] of 0.86.

Take GGGTCCGTAGCACATCTT: the remaining target (mRNA or protein) (fraction of control) in data set [2] is 0.47.

The sequence GGTAACACATTTAGTATT had a remaining target (mRNA or protein) (fraction of control) in data set [1] of 0.48.

Turning to GGTTCATCTCCTCGTCCT, in data set [2], the remaining target (mRNA or protein) (fraction of control) was 0.64.

In turn, GTGATGAGGAGTTTCCAG registered a remaining target (mRNA or protein) (fraction of control) in data set [3] of 0.98.

Sequence GTTCTGGATGCTCCACAG gave a remaining target (mRNA or protein) (fraction of control) in data set [3] of 0.55.

In data set [1], GTTTCTCCAACCCTCTGA showed a remaining target (mRNA or protein) (fraction of control) of 0.2.

Sequence TAAACCTAAGCAGAACCT displayed a remaining target (mRNA or protein) (fraction of control) in data set [1] of 0.37.

Consider TAACATTGGAGAGTAAAC, for which the remaining target (mRNA or protein) (fraction of control) in data set [1] amounted to 0.54.

TATTACAGTTTTGAGTGG returned a remaining target (mRNA or protein) (fraction of control) in data set [1] of 0.52.

Regarding TCAAACTTCTTACACTCC, in data set [3], the remaining target (mRNA or protein) (fraction of control) amounted to 0.54.

Turning to TCACCCTCAAGCTAAGCA, in data set [3], the remaining target (mRNA or protein) (fraction of control) was ≥ 1.

For TCACCGTGTCTCCAATCT, in data set [3], the remaining target (mRNA or protein) (fraction of control) came to 0.53.

Sequence TCACTGCTTTCTCACACC registered a remaining target (mRNA or protein) (fraction of control) in data set [1] of 0.08.

On to TCAGCTTGGGCCTGGCAG, for which the remaining target (mRNA or protein) (fraction of control) in data set [3] turned out to be 0.6.

With TCCTTCGGCCTGAGGGAG, the remaining target (mRNA or protein) (fraction of control) in data set [3] was found to be 0.57.

On to TCTCACTGAGGTAATGAA, for which, in data set [3], the remaining target (mRNA or protein) (fraction of control) turned out to be 0.66.

As for TCTCTGATAGTGGTAAGG, in data set [1], the remaining target (mRNA or protein) (fraction of control) was 0.49.

The sequence TGAAGTGTGTCTCCACGA returned a remaining target (mRNA or protein) (fraction of control) in data set [2] of 0.61.

In the case of TGAGCAGGTGGACTGTGG, in data set [2], the remaining target (mRNA or protein) (fraction of control) was found to be 0.31.

In data set [1], TGCTCCTCCAGACCCACC showed a remaining target (mRNA or protein) (fraction of control) of 0.01.

With TGGATGGAGAAATTCTTC, the remaining target (mRNA or protein) (fraction of control) in data set [3] is 0.64.

Turning to TGTCACTACCAACATGAC, the remaining target (mRNA or protein) (fraction of control) in data set [3] came to 0.32.

In data set [3], TGTCCCATTTTGCTCTGG showed a remaining target (mRNA or protein) (fraction of control) of 0.53.

Consider TGTTGGTCACTTGTTTCT, for which, in data set [1], the remaining target (mRNA or protein) (fraction of control) was 0.58.

Consider TTAGTGTTTTCTGGAATG, for which the remaining target (mRNA or protein) (fraction of control) in data set [1] is 0.48.

Regarding TTCAGGTCCTCAAACTTA, in data set [2], the remaining target (mRNA or protein) (fraction of control) worked out at 0.38.

Sequence TTCCTGCCCATTCTGCTC gave a remaining target (mRNA or protein) (fraction of control) in data set [1] of 0.08.

TTCGATGGGATACCTGGA returned a remaining target (mRNA or protein) (fraction of control) in data set [1] of 0.99.
